For the experiment, the system named is anti-AQP5 autoantibodies. Description: Indirect immunofluorescence (IIF) assay: AQP5 staining by human serum/IgG pre-incubated with peptide. It counts as binding. Particulars: for inhibition of anti-AQP5 autoantibodies from the control group: by comparison of the mean signal intensities (Fig. 2B); for frequency of recognition by SS vs control samples: seven peptides originating from the AQP5 sequence. The source says:
This study was done in compliance with the Helsinki Declaration after approvals from the Institutional Review Board of Seoul National University Hospital (IRB number: 0912-011-302) and the Institutional Review Board of Seoul St. Mary's Hospital (IRB number: KC13ONMI0646). From our previous study (12), 13 control and 24 SS serum samples positive for anti-AQP5 IgG were chosen based on the levels of anti-AQP5 IgG and availability. The first 12 control and 12 SS samples had similar low levels of anti-AQP5 IgG, while the rest of the samples had intermediate to high levels. IgG antibodies were purified using a protein A column (ThermoFisher Scientific, Waltham, MA, USA) from the sera of 3 SS patients who were not included in the previous study. A commercial human IgG product purified from pooled normal sera (Sigma-Aldrich Korea, Seoul, Korea) was used as control. All SS patients fulfilled the 2002 American-European Consensus group classification criteria and/or the 2012 American College of Rheumatology criteria. Madin-Darby canine kidney (MDCK) cells expressing full-length human AQP5 (MDCK-AQP5) were maintained in DMEM medium with 10% FBS and 1% penicillin/streptomycin in the presence of G418 (12). A mixture of non-transfected MDCK and MDCK-AQP5 cells (6 × 10^4) was plated onto collagen-coated coverslips of 12 mm diameter. After stimulation with 0.5 mM cAMP for 24 hours, the cells were fixed with 4% paraformaldehyde in PBS (pH 7.4) and subjected to antigen retrieval by incubation in sodium citrate buffer (10 mM sodium citrate, 0.05% Tween-20, pH 6) at 105 °C for 20 min. After blocking with 5% BSA in PBS, the cells were incubated with goat polyclonal antibodies raised against a peptide near the C-terminus of human AQP5 (Santa Cruz, Paso Robles, CA, USA) along with control/SS sera (1:200 dilution) or purified IgG (10 µg) that were pre-incubated overnight with 10 µg synthetic peptides in RIA buffer (10 mM Tris-HCl, 350 mM NaCl, 1% BSA, 1% Triton X-100, 0.5 % Sodium deoxycholate, 0.1% SDS, 10% Horse serum, pH 7.6). Subsequently, the cells were stained with Alexa Fluor 488-conjugated donkey anti-goat IgG (Invitrogen, Carlsbad, CA, USA) and CF™ 594-conjugated rabbit anti-human IgG (Sigma-Aldrich). At least four images of AQP5-expressing cells were randomly selected, based on the goat anti-AQP5 antibody stain, and imaged sequentially for the staining with human IgG using a confocal microscope (Carl Zeiss, Jena, Germany). After coding the images, two individuals blindly determined the relative intensities of the anti-AQP5 human IgG signals by decreasing the brightness of the red signal until all the signals of AQP5 stain disappeared. […] The mean of the Δ brightness was used to express the anti-AQP5 IgG level in each sample. The differences in proportion between two groups were determined by Fisher's exact test. Differences in means between the experimental and control groups were determined by Student's t-test, while the differences among peptides were determined by Oneway ANOVA. All statistical analyses were performed using SPSS (SPSS Inc., Chicago, USA). To analyze the epitopes recognized by anti-AQP5 autoantibodies, MDCK-AQP5 cells were double stained with goat anti-AQP5 antibodies and serum from either control subjects or SS patients that were pre-incubated with each peptide (Fig. 2A). The intensity of AQP5 staining by human IgG in the presence of each peptide was expressed as the percentage of control conditions in the absence of peptides (Table 2). Because the normalized intensities of AQP5 staining in the presence of IRP varied from 69 to 173 depending on the sample, signal intensities smaller than 62.2, which is the mean - 2SD of values in the presence of IRP, were regarded as being inhibited by the corresponding peptide.

This note sets out measurements from EP3611183B1, “EPITOPE PEPTIDE SPECIFICALLY RECOGNIZING AUTOANTIBODY AGAINST AQUAPORIN 5, AND USE THEREOF” (Seoul National University R & DB Foundation, priority 2017, dated 2023).

On to “CMNPARSFGC (Epitope of AQP5 Extracellular loop E with Cystein added at N- and C- term) [E2, Extracellular loop E aa 184-191 with added terminal cysteines]”, for which the “inhibition of anti-AQP5 autoantibodies from the control group” value is listed as “significantly inhibited” and the “frequency of recognition by SS vs control samples” value is given as “more frequently recognized by SS than by control samples”.
On to “GCSMNPARSFGC (Epitope of AQP5 Extracellular loop E with Cystein added at C- term) [peptide E1, Extracellular loop E aa 181-191 with C-terminal cysteine added]”, for which the “inhibition of anti-AQP5 autoantibodies from the control group” value is given as “significantly inhibited” and the “frequency of recognition by SS vs control samples” value was “most frequently recognized”. The “control samples inhibited by / recognizing the peptide” value (14 control samples (13 sera, 1 control-IgG), inhibited = signal intensity smaller than 62.2) is reported as 2 of 14. Further, the “SS samples inhibited by / recognizing the peptide” value (27 SS samples (24 sera, 3 purified IgG), inhibited = signal intensity smaller than 62.2) is 20 of 27.
